Assay results reported in patent publication US20080113944A1, “Novel Indole Derivatives” (Novo Nordisk A/S, priority 2004, published 2008).

Row | melting point [°C] | SMILES
1 | 219 to 221 | N#CC(=Cc1ccc2[nH]ccc2c1)S(=O)(=O)c1ccc([N+](=O)[O-])cc1 [Example 2, 3-(1H-indol-5-yl)-2-(4-nitrobenzenesulfonyl)acrylonitrile]
2 | 184 to 185 | CS(=O)(=O)C(C#N)=Cc1ccc2[nH]ccc2c1 [Example 3, 3-(1 H-indol-5-yl)-2-methanesulfonylacrylonitrile]
